Source: PMC3914206

Assays:
Type in all cases: binding
Details in all cases: Compound Concentration 10 µM
[1] = molecular target: T1, panel of 442 kinases (Homo sapiens, UniProt O14578)
T1 construct: purchased KINOMEscan
Excerpt: (§1) We assessed the selectivity of members of this scaffold using the KINOMEscan methodology across a near comprehensive panel of 442 kinases [[18,27]].

[2] = molecular target: T2, panel of 442 kinases (Homo sapiens, UniProt Q8N752)
T2 construct: purchased KINOMEscan
T2 sequence (Q8N752 1-337): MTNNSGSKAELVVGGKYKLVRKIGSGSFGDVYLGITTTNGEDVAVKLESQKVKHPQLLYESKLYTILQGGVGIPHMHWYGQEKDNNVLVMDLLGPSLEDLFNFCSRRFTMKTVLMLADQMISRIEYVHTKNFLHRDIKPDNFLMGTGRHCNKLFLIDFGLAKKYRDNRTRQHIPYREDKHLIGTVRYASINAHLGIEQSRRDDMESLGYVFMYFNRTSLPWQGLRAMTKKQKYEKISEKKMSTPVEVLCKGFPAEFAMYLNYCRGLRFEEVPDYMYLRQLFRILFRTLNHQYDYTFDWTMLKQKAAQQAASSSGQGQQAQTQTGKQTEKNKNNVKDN
Excerpt: as §1

[3] = molecular target: T3, panel of 442 kinases (Homo sapiens, UniProt Q92918)
T3 construct: purchased KINOMEscan
Excerpt: as §1

T1 sequence (O14578 whole entry): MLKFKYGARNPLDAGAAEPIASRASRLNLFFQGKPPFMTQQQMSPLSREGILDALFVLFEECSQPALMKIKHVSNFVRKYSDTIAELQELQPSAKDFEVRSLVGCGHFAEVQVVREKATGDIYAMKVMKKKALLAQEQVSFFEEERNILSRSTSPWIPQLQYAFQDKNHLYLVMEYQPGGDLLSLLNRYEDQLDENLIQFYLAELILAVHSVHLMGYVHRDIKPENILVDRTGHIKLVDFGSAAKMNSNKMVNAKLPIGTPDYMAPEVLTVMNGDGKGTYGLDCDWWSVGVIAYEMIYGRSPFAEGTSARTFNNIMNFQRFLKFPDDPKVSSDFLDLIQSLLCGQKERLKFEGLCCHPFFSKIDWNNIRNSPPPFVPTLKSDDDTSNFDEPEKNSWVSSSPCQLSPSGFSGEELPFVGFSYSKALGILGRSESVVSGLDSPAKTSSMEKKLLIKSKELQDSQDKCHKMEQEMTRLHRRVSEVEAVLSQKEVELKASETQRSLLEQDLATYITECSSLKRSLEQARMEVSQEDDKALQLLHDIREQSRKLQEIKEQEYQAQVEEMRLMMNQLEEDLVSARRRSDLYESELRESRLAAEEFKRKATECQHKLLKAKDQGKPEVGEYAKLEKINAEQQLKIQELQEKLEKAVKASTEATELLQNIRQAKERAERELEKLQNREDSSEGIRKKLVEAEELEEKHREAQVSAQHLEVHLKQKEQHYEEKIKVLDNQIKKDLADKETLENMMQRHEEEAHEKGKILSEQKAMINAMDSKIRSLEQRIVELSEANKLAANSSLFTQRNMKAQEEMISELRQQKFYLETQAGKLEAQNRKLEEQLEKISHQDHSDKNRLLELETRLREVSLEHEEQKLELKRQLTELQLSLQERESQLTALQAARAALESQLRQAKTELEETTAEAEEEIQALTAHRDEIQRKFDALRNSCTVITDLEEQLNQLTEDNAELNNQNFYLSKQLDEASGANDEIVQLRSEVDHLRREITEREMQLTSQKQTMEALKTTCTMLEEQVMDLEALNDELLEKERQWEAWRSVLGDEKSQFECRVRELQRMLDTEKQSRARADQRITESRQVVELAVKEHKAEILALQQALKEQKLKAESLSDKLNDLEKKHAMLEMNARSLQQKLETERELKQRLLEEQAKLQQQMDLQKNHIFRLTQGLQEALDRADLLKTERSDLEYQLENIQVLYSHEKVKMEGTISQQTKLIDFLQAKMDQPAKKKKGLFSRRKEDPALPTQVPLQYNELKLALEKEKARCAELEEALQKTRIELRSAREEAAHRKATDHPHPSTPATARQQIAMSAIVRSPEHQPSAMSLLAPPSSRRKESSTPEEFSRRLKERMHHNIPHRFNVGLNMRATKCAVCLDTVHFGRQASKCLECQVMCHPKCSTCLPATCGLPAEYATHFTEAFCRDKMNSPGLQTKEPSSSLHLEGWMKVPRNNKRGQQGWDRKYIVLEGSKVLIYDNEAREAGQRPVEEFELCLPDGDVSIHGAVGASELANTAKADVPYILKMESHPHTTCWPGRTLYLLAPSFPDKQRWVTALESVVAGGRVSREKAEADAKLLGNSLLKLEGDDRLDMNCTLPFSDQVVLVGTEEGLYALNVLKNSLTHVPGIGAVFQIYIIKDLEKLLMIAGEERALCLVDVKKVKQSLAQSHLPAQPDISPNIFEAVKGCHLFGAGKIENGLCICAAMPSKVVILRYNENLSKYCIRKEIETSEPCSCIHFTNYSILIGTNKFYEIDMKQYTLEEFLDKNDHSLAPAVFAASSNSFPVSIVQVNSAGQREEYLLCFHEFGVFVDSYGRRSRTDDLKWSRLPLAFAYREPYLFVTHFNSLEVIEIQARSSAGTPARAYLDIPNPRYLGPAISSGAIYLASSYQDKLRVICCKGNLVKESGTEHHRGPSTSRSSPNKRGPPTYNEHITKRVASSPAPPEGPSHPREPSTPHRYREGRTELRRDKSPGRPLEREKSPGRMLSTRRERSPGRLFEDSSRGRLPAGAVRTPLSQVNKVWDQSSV
T3 sequence (Q92918 whole entry): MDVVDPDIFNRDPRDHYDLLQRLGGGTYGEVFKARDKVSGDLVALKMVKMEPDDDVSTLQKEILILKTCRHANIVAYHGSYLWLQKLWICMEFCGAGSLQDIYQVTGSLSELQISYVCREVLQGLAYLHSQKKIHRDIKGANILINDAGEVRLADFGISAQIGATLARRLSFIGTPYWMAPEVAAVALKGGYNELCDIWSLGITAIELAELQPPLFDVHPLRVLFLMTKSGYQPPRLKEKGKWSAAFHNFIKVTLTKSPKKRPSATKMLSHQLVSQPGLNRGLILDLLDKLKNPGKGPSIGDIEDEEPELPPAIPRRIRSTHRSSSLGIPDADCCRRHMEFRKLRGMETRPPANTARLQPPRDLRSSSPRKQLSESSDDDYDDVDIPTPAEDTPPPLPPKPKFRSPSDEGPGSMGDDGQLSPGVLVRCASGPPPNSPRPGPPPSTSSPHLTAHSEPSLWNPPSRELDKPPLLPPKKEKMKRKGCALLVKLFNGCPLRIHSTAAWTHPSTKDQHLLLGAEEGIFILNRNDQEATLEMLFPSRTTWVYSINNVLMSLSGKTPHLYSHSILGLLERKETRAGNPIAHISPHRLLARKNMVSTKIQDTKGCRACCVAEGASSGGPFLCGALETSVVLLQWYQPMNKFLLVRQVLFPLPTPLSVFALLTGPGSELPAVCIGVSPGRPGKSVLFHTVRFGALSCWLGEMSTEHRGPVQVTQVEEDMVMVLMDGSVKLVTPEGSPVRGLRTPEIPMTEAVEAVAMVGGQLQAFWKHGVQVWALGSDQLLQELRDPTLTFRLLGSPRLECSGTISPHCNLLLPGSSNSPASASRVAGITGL

`COc1cc(C(=O)N2CCC(N3CCN(C)CC3)CC2)ccc1Nc1ncc2c(n1)N(C)c1ccccc1C(=O)N2C` [15 (LRRK2-IN-1)] was tested, and the “KINOMEscan: CIT” value [1] was 99, the “KINOMEscan: CSNK1A1L” value [2] was 100 and the “KINOMEscan: HPK1” value [3] was 100.

For `CCOc1cc(C(=O)N2CCC(N3CCN(C)CC3)CC2)ccc1Nc1ncc2c(n1)N(C1CCCC1)c1ccccc1C(=O)N2C` [Compound 26], the “KINOMEscan: CIT” value [1] was 98, the “KINOMEscan: CSNK1A1L” value [2] was 99 and the “KINOMEscan: HPK1” value [3] was 94.

For `COc1cc(C(=O)N2CCC(N3CCN(C)CC3)CC2)ccc1Nc1ncc2c(n1)N1CCc3cccc(c31)C(=O)N2C` [Compound 24], the “KINOMEscan: CIT” value [1] was 1.5.

For `COc1cc(C(=O)N2CCC(N3CCN(C)CC3)CC2)ccc1Nc1ncc2c(n1)N(C1CCCC1)c1ccccc1C(=O)N2C` [Compound 25, 11-cyclopentyl-2-((2-methoxy-4-(4-(4-methylpiperazin-1-yl)piperidine-1-carbonyl)phenyl)amino)-5-methyl-5H-benzo[e]pyrimido[5,4-b][1,4]diazepin-6(11H)-one], the “KINOMEscan: CIT” value [1] was 66, the “KINOMEscan: CSNK1A1L” value [2] was 100 and the “KINOMEscan: HPK1” value [3] was 89.
